Experimental data reported in US20090054507A1, “CONTROL OF MALIGNANT CELLS BY KINASE INHIBITION” (CLEVELAND STATE UNIVERSITY, priority 2006, published 2009).

Experiments:
Type in all cases: cell-based, human
[1] = test system: MEG-01 cells; assay: Viability (proliferation) assay, Trypan blue exclusion, MEG-01
[2] = test system: MEG-01 cells; assay: Thrombocytopoiesis / proplatelet formation by microscopy
Method: Light microscopy (phase contrast) and DAPI fluorescence microscopy. High quality pictures and live imaging were obtained at Cleveland Clinic Imaging Core (Cleveland, Ohio). DAPI staining of cultured MEG-01 cells was performed with fresh cells. For live imaging (observing a single cell for a 24 hour period of time) of the thrombocytopoiesis process, MEG-01 suspension cells were made adherent by using Fibronectin (FN) coated culture dishes. FN was used, at 5 μg/cm^2 and incubated at 37° C. for 1 h, as recommended by the supplier (BD Biosciences, Bedford, Mass., USA).
Scanning electron microscopy (SEM). Cell preparation and pictures were performed at the Microscopy Core Facility (Cleveland Clinic). Cells were grown for 4 days in the presence of 10 μM DMAT and then collected by differential centrifugation. Cells were fixed in glutaraldehyde and then further processed at the Core. The clot was prepared with platelets collected from MEG-01 cultures treated with 10 μM DMAT. Human thrombin 0.5 U/ml for 15 minutes was used to activate them.

[3] = test system: MEG-01 cells; assay: Annexin V-FITC and PI apoptosis assay, MEG-01
Method: Flow cytometric analysis. Cells were analyzed using a FACSCalibur flow cytofluorometer (Becton-Dickinson), with CellQuestPro ver. 3.3 software. The data was further analyzed with FlowJo ver. 6.2, and WinMDI 2.8 software. Proper gating was performed to characterize each cell population (MEG-01 cells and platelets). The population that corresponds to platelets (small, granulated particles), is PI negative because thrombocytes are anucleated cells (only the viable cells were considered) and were distinguished by their capacity to become activated, undergoing shape change in response to agonist and to show phosphatidylserine (PS) exposure when activated. Platelets were further separated from the megakaryocytic cells, by differential centrifugation, considering the size difference between these cell populations (1-5 μm for platelets and 35-150 μm for megakaryocytic cell line MEG-01) and analyzed separately. Voltage and channels settings were adjusted accordingly. Analyzed values were obtained with WinMDI ver. 2.8.
Apoptosis Assays using Flow Cytometry with Annexin V-FITC and propidium iodide (PI). For induction of typical apoptosis, cells were grown in the presence of 1 μM staurosporine (Sigma-Aldrich) for 6 hours. The staurosporine treated cells were stained as follows: control 1 with PI, control 2 with Annexin V-FITC and control 3 both PI and Annexin V-FITC in order to have the brightest controls for compensation and proper collection of the flow cytometry data. Cell necrosis was induced by heat shock (65° C. for 30 minutes). The stained control, both PI and Annexin V-FITC labeled, was then used as the reference in establishing the level of apoptosis induced by the treatments. Data was collected on logarithmic modes, two-colors. Annexin V-FITC corresponds to FL1 H channel, and PI to FL3H or FL2H channels.
Annexin V-FITC and PI apoptosis assay staining protocol. Apoptosis Annexin V-FITC and PI kit from BD Biosciences, CA, USA, was used. 10^5-10^6 cells were stained with 50 μg/ml PI and with 0.5 μg/ml FITC-labeled Annexin V using the staining protocol provided by the supplier. Samples were then analyzed immediately by flow cytometry.

**Q.** Which “proliferation of MEG-01 cells (Trypan Blue exclusion)” value ([1]; 5 nM PMA, five days of treatment) does the source give for CCCCCCCCCCCCCC(=O)O[C@@H]1[C@@H](C)[C@@]2(O)[C@@H](C=C(CO)C[C@]3(O)C(=O)C(C)=C[C@@H]23)[C@@H]2C(C)(C)[C@]12OC(C)=O [PMA, Phorbol 12-myristate 13-acetate, reference compound] here?
**A.** The value was “a decrease in proliferation was observed”.

**Q.** How did the thrombocytopoiesis [2] turn out when Brc1c(Br)c(Br)c2[nH]nnc2c1Br [TBB, 4,5,6,7-tetrabromobenzotriazole] was run?
**A.** The thrombocytopoiesis was “induced thrombocytopoiesis”.

**Q.** And the “cell number / proliferation rate of MEG-01 cells” value ([1]; 100 μM TBB, 4 days of treatment)?
**A.** The value was “maintained a steady number of cells”.

**Q.** And the “cytotoxicity (necrosis) in MEG-01 cells” value [3]?
**A.** Its value is “without being cytotoxic”.

**Q.** What about the “dose and time dependence of induced apoptosis and phenotype change” value ([3]; 24 to 96 hours) of the same compound?
**A.** Its value is “dose and time dependent”.
